Laboratory results reported in patent US5166200A, “Treatment of endometriosis” (Snow Brand Milk Products Company, Limited, priority 1990, dated 1992).
“Also recorded” adds a separate entry of the source. Where two headings read alike, the source gives them in different places.

Experiments:
estradiol (Ez) [1] = experiment: Test (2) serum estradiol (Ez) reduction, oral administration, PMSG-treated rats, radioimmunoassay; format: in vivo, SD strain female rats; conditions: 100 mg/kg, 6 hours after administration, 5 per group, control (HPC) 0.522
Protocol: (§1) In this Test Example, effects of administration of 6-OA and 6-enol ester compounds thereof on estradiol (Ez) reduction were examined.
The type, age, number and grouping of test animals were the same as in Test (1).
All of the rats were subcutaneously injected with PMSG, in the same manner as in Test (1), in an amount of 100 IU/body once every other day (6 times in total).
Before noon of the next day of the final (6th) administration of PMSG, 0.5 ml of a solvent, 100 mg/kg of 6-OA, 100 mg/kg of 6-OAp and 100 mg/kg of 6-OAb were orally administered to group I (control group), group II, group III and group IV, respectively.
Aftr 6 hours from the administration, the rats were subjected to exsanguination. The blood collected from each rat was subjected to serum separation, and the Ez in the serum was determined by radioimmunoassay.
The solvent used was the same as in Test (1). 6-OA, 6-OAp and 6-OAb were each suspended in the solvent in such a concentration that the administration amount of the resulting suspension per rat became 0.5 ml.

[2] = test system: aromatase (a steroidogenesis enzyme); conditions: known; Japanese Patent Application Laid-Open Nos. 192794/1988, 131193/1989; cited from earlier work
[3] = animal toxicity tests (LD50)
estradiol (Ez) [4] = experiment: Test (1) serum estradiol (Ez) reduction, subcutaneous administration, PMSG-treated rats, radioimmunoassay; format: in vivo, SD strain female rats; conditions: for Ez-reducing effect: compared with the control group, in both cases of subcutaneous administration (50 mg/kg) and oral administration (100 mg/kg, Test (2)); for Ez concentration in serum (average): subcutaneous, 50 mg/kg, 3 hours after administration, PMSG-treated rats, 5 per group, control (HPC) 0.572
Protocol: as §1
20 SD strain female rats of 8-week old were used as test animals. They were divided into four groups each consisting of 5 rats. To all the rats was subcutaneously injected pregnant mare serum gonatropin (PMSG) in an amount of 100 IU/body once every other day (6 times in total). In the beforenoon of the next day of the final (6th) administration of PMSG, 0.5 ml of a solvent, 50 mg/kg of 6-OA, 50 mg/kg of 6-OAp and 50 mg/kg of 6-OAb were subcutaneously administered to group I (control group), group II, group III and group IV, respectively.
After 3 hours from the administration, the rats were subjected to abdomen opening under etherization and then to exsanguination from the main vein. The blood collected from each rat was subjected to serum separation, and the Ez in the serum was determined by radioimmunoassay.
A physiological saline solution containing 0.3% of hydroxy propyl cellulose (HPC) was used as the solvent. 6-OA, 6-OAp and 6-OAb were each suspended in the solvent in such a concentration that the administration amount of the resulting suspension per rat became 0.5 ml.

[5] = cited from earlier work
[6] = test system: experimental endometriosis; experiment: effect on model rats of endometriosis (cysts in endometrium autoplanted under renal capsule); format: in vivo, SD strain female rats; conditions: 100 mg/kg/day
Text: In this Test example, effect of administration of 6-OAp on model rats of endometriosis was examined.
SD strain female rats of 7-week old weighing 170-210 g were used as test animals. In these rats, an endometrial segment (about 5 mm×5 mm) was removed from the left uterine horn and autoplanted under the left renal capsule, and formation of cysts in the transplanted endometrium was examined. Those rats which had developed cysts of 0.5-2.0 mm in height in the transplanted endometrium, were used for test.
The rats were divided into three groups. To group I (control group) was orally administered a physiological saline solution containing 0.3% of hydroxy propyl cellulose (HPC) daily in an amount of 0.5 ml/day. To group II was orally administered 6-OAp daily in an amount of 100 mg/kg/day. In this case, 6-OAp was suspended in a physiological saline solution containing 0.3% of HPC in such a concentration that the administration amount of the resulting suspension per rat became 0.5 ml. Group III (positive control) was subjected to ovary removal.
Each rat was subjected to abdomen opening after 3 weeks from the start of administration or after the ovary removal and examined for the presence of cysts.
Chi-square test was used for the statistical analysis of the test data obtained.

| SMILES | Ez concentration in serum (average) (estradiol (Ez) [1]) [ng/mL] | Ez-reducing effect (estradiol (Ez) [4]) | Ez concentration in serum (average) (estradiol (Ez) [4]) [ng/mL] | other results |
| --- | --- | --- | --- | --- |
| C[C@]12CCC(=O)C=C1C(=O)C[C@@H]1[C@@H]2CC[C@]2(C)C(=O)CC[C@@]12O [6-OA, 14α-Hydroxy-4-androstene-3,6,17-trione] | 0.291 | strong Ez-reducing effect | 0.262 | aromatase-inhibitory activity [2]: strong aromatase-inhibitory activity; toxicity ([3]; animal tests): very low toxicity; LD50 ([3]; in vivo): > 2000 mg/kg |
| CCNC(=O)[C@@H]1CCCN1C(=O)[C@H](CCCNC(=N)N)NC(=O)[C@H](CC(C)C)NC(=O)[C@@H](COC(C)(C)C)NC(=O)[C@H](Cc1ccc(O)cc1)NC(=O)[C@H](CO)NC(=O)[C@H](Cc1c[nH]c2ccccc12)NC(=O)[C@H](Cc1cnc[nH]1)NC(=O)[C@@H]1CCC(=O)N1 [buserelin] | – | – | – | side effects ([5]; treatment of endometriosis, prior art): hyposexuality, hot flushes and the like |
| CCC(=O)OC1=C[C@@H]2[C@H](CC[C@]3(C)C(=O)CC[C@@]23O)[C@@]2(C)CCC(=O)C=C12 [6-OAp, 14α-Hydroxy-androsta-4,6-diene-3,17-dione-6-propionate] | 0.226 | strong Ez-reducing effect; also recorded: stronger Ez-reducing effect than the 6-OA group and the 6-OAb group | 0.230 | Disappearance (of cysts) ([6]; oral, 3 weeks, control 9%, ovary-removed 100, significant at 5% level relative to control group (Chi-square)): 41%; Cysts absent ([6]; oral, 3 weeks, total 22 rats, control 2 of 22, significant at 5% level relative to control (Chi-square)): 9 rats; Cysts present ([6]; oral, 3 weeks, total 22 rats, control 20 of 22): 13 rats; effect on experimental endometriosis of rats ([6]; orally administered daily for 3 weeks): effective |
| C#C[C@]1(O)CC[C@H]2[C@@H]3CCC4=Cc5oncc5C[C@]4(C)[C@H]3CC[C@@]21C [danazol] | – | – | – | side effects ([5]; in vivo): dyshepatia, masculinization and the like |
| C[C@]12CCC(=O)C=C1C(OC(=O)c1ccccc1)=C[C@@H]1[C@@H]2CC[C@]2(C)C(=O)CC[C@@]12O [6-OAb] | 0.422 | strong Ez-reducing effect | 0.390 | – |
